{"source": "patent EP4608400B1", "about": "“COMPOUND FOR TREATMENT OF PAIN” (Initiator Pharma A/S, priority 2022, dated 2024)", "key": {"Dopamine (DA)": {"tested_on": "Dopamine (DA)", "test": "Microdialysis studies in mice brain (cortex, striatum)", "assay_type": "in vivo", "settings": "10 mg/kg s.c., n=1-2", "description": "In a small subset of mice, microdialysis was performed with a probe placed in either the striatum or cortex by use of stereotaxis."}, "[1]": {"target": "T1, 5-hydroxytryptamine transporter (5-HTT or SERT) (Homo sapiens, UniProt P31645)", "T1 construct": "expressed in transfected cells", "T1 sequence (P31645 whole entry)": "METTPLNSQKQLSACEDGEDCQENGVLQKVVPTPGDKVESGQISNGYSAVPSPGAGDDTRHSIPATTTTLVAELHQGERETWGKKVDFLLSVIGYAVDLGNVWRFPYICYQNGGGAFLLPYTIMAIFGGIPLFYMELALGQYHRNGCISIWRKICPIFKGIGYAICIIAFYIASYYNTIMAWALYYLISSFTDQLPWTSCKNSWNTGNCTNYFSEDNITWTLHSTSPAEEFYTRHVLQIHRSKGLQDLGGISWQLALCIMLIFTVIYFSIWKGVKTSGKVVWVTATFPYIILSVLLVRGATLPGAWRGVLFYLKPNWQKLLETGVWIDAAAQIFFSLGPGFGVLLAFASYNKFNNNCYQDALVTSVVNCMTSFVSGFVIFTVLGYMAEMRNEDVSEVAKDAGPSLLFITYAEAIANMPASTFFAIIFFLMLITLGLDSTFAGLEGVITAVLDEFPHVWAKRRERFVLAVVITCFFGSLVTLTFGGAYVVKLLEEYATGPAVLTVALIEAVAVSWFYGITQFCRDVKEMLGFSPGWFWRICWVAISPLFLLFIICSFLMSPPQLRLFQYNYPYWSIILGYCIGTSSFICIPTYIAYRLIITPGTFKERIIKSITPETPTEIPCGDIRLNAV", "test": "Inhibition of human transporter in stable epithelial cell lines (5-HTT)", "assay_type": "cell-based", "settings": "average of two replicates (n=2)", "description": "(§1) Compounds were tested for their ability to inhibit the reuptake of the monoamine neurotransmitters dopamine (DA), noradrenaline (NA), and serotonin (5-HT) in synaptosomes as described in WO 97/16451 (NeuroSearch A/S). In addition, the compounds were tested in human epithelial cells expressing human transporters for 5-HT (SERT), dopamine (DAT), and norepinephrine (NET).\n(§2) The results are the average of two-replicates per experiment (n=2)."}, "[2]": {"test": "Phase I ascending single oral dose study: safety and tolerability", "assay_type": "in vivo, human", "description": "Study design. The study was a Phase I, randomised, double-blind, placebo-controlled, ascending single oral dose, safety, tolerability, pharmacokinetic (PK) and pharmacodynamics (PD) study of IP2015 in healthy male subjects.\nEach subject received one oral dose of IP2015 or matched placebo. […] The dose level was to be escalated to a maximum of 0.05 mg in Cohort 2 and a maximum of 0.2 mg in Cohort 3. The doses in the remaining five cohorts were to be determined based on the dose escalation criteria.\nThe randomisation schemes were generated by a statistician using SAS PROC Plan.\nThe doses used in each cohort were as follows: • Cohort 1 - 0.01 mg • Cohort 2 - 0.05 mg • Cohort 3 - 0.2 mg • Cohort 4 - 0.6 mg • Cohort 5 - 1.8 mg • Cohort 6 - 5.4 mg • Cohort 7 - 16.2 mg • Cohort 8 - 10 mg\nEvaluation. The study evaluated the clinical safety data from adverse event (AE) reporting, 12-lead electrocardiogram (ECG), cardiac telemetry, vital signs (standing and supine blood pressure (BP), heart rate (HR), oral temperature and clinical laboratory evaluations (chemistry, haematology, urinalysis) and physical examinations in healthy male subjects."}, "[3]": {"target": "T2, norepinephrine transporter (NET) (Homo sapiens, UniProt P23975)", "T2 construct": "expressed in transfected cells", "T2 sequence (P23975 whole entry)": "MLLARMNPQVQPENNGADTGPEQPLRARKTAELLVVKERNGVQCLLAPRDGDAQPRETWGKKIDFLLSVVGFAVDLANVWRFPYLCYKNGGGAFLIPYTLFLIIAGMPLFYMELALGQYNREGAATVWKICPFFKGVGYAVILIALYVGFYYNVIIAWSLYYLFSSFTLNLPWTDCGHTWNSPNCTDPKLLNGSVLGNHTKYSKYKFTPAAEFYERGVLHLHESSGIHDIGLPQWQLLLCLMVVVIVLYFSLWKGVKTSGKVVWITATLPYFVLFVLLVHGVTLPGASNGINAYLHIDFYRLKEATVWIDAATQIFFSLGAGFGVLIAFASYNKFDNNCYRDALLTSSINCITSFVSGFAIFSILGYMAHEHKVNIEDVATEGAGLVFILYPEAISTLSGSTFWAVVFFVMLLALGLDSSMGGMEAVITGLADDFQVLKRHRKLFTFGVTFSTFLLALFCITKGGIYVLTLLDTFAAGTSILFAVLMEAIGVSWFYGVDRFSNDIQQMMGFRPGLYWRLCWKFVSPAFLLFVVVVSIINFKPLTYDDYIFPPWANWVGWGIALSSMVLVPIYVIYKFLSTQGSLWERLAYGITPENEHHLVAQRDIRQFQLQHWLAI", "test": "Inhibition of human transporter in stable epithelial cell lines (NET)", "assay_type": "cell-based", "settings": "average of two replicates (n=2)", "description": "as §1, §2"}, "[4]": {"test": "Phase I crossover study, intradermal capsaicin model: safety evaluation (TEAEs)", "assay_type": "in vivo, human", "description": "(§3) In order to maintain the blind, a double dummy approach was used.\nSafety was assessed through AE reporting, 12-lead ECG, vital signs, physical examinations and clinical laboratory evaluations. Pharmacokinetics was assessed by blood sampling."}, "[5]": {"tested_on": "intradermal capsaicin model", "test": "Phase I crossover study, intradermal capsaicin model: pharmacodynamics", "assay_type": "in vivo, human", "settings": "for Pain Score of Brush-evoked Allodynia Using an NRS, Adjusted Mean (MMRM) / Subjective Rating of Pain, Adjusted Mean (MMRM): overall, all timepoints, N=24; for Pain Score of Brush-evoked Allodynia Using an NRS, Adjusted Mean (MMRM): placebo 2.0; for Subjective Rating of Pain, Adjusted Mean (MMRM): placebo 17.1", "from_the_text": "Participants. The volunteers were males aged 18 to 55 years with a body mass index (BMI) of 18 to 30 kg/m2. They were healthy as determined by a responsible physician, based on a medical evaluation including medical history, physical examination, concomitant medication, vital signs, 12-lead ECG, and clinical laboratory evaluations. The participants must have been in good general health with a skin type compatible with the measures and without significant skin allergies, pigmentary disorders or any active dermatological conditions. […] The participants provided written informed consent, which included compliance with the requirements and restrictions listed in the consent form, including the use of a condom during the trial and for 3 months after their final dose of trial medication, if their partner was a woman of childbearing potential.\nClinical and laboratory data. Prior to and 15, 30, 60, 90 and 120 minutes after administration of capsaicin, measurements of pain, hyperalgesia, allodynia and AF were performed. At 2 hours post-capsaicin injection, subjects completed a quantitative sensory testing (QST) battery at two sites on the volar surface of each forearm. One site was the most recent capsaicin injection site, and the other was at an equivalent point on the opposite forearm. […] There was a minimum washout period of 5 days between treatment periods.\nReconstitution was performed by a Pharmacist at the clinical site prior to dosing.\nas §3\nSubjects were randomised to receive a single administration of a treatment combination during each treatment period. All subjects received each treatment combination once only.\nEvaluation methods: Pharmacodynamics was assessed through pain measurements (response to ID injection of capsaicin, measurement of pain using a visual analogue scale, area and pain score of hyperalgesia, area and pain score of allodynia, and AF) and the ID capsaicin model. Subjects also completed a QST battery at two sites on the volar surface of either forearm. The QST battery included the following tests: thermal detection and pain thresholds, mechanical detection and pain thresholds, stimulus/response functions, wind-up ratio and pressure pain threshold.\nFor measurement of pain, a visual analogue scale (VAS) was used. The VAS consisted of a 100 mm line, with 0 representing \"no pain\" and 100 representing \"worst pain imaginable\". Subjects were asked to mark the VAS using a single vertical stroke at the point they considered to appropriately reflect their level of pain from the injection of capsaicin (not general pain). A new VAS was provided for each time point and subjects were not allowed to see their previous VAS responses. The VAS was scored by measuring from the left-hand end of the scale to the point where the subject had marked the line, and the distance in mm was recorded.\nResponse to pain was also assessed by a numeric rating scale (NRS). For example, by using an 11-point numeric rating scale ranging from 0 (\"no pain\") to 10 (\"worst possible pain\") and asking the subject to rate their pain. A NRS scale of 0 to 100 was also used in some assesments.\nThe thermal tests were performed using a thermode probe (Medoc). Cold and warm detection thresholds were measured first, then cold pain and heat pain thresholds were determined. The mean threshold temperature of 3 consecutive measurements was calculated. All thresholds were obtained with ramped stimuli (1°C/sec) that were terminated when the subject pressed a button. For thermal detection thresholds the ramp back to baseline was 1°C/sec, while for thermal pain thresholds this ramp was chosen at maximum device capacity resulting in approximately a nominal 5°C/sec.\nThe mechanical detection threshold was measured with a standardised set of modified von Frey nylons that exerted forces upon bending between 0.25 and 512 mN graded by a factor of 2 (1 to 2 seconds contact time). […]"}}, "note": "Entries after “also recorded” stand apart in the source; their conditions may differ."}
{"compound": "COc1cc2ccc(O[C@@H]3C[C@H]4CC[C@@H](C3)N4)cc2oc1=O", "note": "[IP2015, exo-7-[(8-azabicyclo[3.2.1]octan-3-yl)oxy]-3-methoxy-chromen-2-one]", "values": [{"measurement": "Dopamine (DA) elevation in cortex", "setting": "Dopamine (DA)", "result": "increased; also recorded: most pronounced"}, {"measurement": "Dopamine (DA) elevation in striatum", "setting": "Dopamine (DA)", "result": "less and only some elevation"}, {"measurement": "IC50", "setting": "[1]", "result": 0.000297, "unit": "µM"}, {"measurement": "incidence of TEAEs", "setting": "[2]; 0.01 mg to 10 mg dose range", "result": "relatively low"}, {"measurement": "mean ECG parameters", "setting": "[2]; 0.01 mg to 10 mg dose range", "result": "no significant treatment- or dose-related trends"}, {"measurement": "vital sign values, mean or individual subject", "setting": "[2]; 0.01 mg to 10 mg dose range", "result": "no significant treatment- or dose-related trends"}, {"measurement": "incidence of side effects compared to the 0.01 mg to 10 mg dose range", "setting": "[2]; 16.2 mg", "result": "increased"}, {"measurement": "subjects with sustained tachycardia for several hours", "setting": "[2]; 16.2 mg", "result": 2, "unit": "subjects"}, {"measurement": "subjects reporting at least one TEAE", "setting": "[2]; 16.2 mg dose group (all subjects of the group)", "result": 4, "unit": "subjects"}, {"measurement": "standing pulse rate", "setting": "[2]; 16.2 mg, 2, 3, 4, 6, 8, 10 and 12 hours postdose", "result": "increases from baseline"}, {"measurement": "supine pulse rate", "setting": "[2]; 16.2 mg, 6, 8 and 10 hours postdose", "result": "increases from baseline"}, {"measurement": "heart rate (ECG)", "setting": "[2]; 16.2 mg, 8 and 12 hours postdose", "result": "increases from baseline"}, {"measurement": "subjects experiencing TEAEs", "setting": "[2]; of the 40 subjects who received IP2015, all dose groups", "result": 16, "unit": "subjects"}, {"measurement": "total TEAEs", "setting": "[2]; the 40 subjects who received IP2015, all dose groups", "result": 32, "unit": "TEAEs"}, {"measurement": "IC50", "setting": "[3]", "result": 0.095, "unit": "µM"}, {"measurement": "severity of all TEAEs", "setting": "[4]; 5 mg IP2015 and 10 mg IP2015", "result": "mild"}, {"measurement": "incidence of TEAEs (share of subjects)", "setting": "[4]; 5 mg IP2015 single oral dose", "result": 29.2, "unit": "%"}, {"measurement": "number of TEAEs reported", "setting": "[4]; 5 mg IP2015 single oral dose", "result": 10, "unit": "events"}, {"measurement": "subjects reporting TEAEs", "setting": "[4]; 5 mg IP2015 single oral dose", "result": 7, "unit": "subjects"}, {"measurement": "incidence of TEAEs (share of subjects)", "setting": "[4]; 10 mg IP2015 single oral dose", "result": 54.2, "unit": "%"}, {"measurement": "number of TEAEs reported", "setting": "[4]; 10 mg IP2015 single oral dose", "result": 19, "unit": "events"}, {"measurement": "subjects reporting TEAEs", "setting": "[4]; 10 mg IP2015 single oral dose", "result": 13, "unit": "subjects"}, {"measurement": "area of brush-evoked allodynia compared to placebo", "setting": "[5]; 5 mg IP2015, 120 min after capsaicin injection, P=0.049", "result": "significantly lowered"}, {"measurement": "Pain Score of Brush-evoked Allodynia Using an NRS, Adjusted Mean (MMRM)", "setting": "[5]; 5 mg IP2015", "result": 1.8}, {"measurement": "Subjective Rating of Pain, Adjusted Mean (MMRM)", "setting": "[5]; 5 mg IP2015 single oral dose", "result": 15.6, "unit": "mm"}, {"measurement": "adjusted mean pain score of hyperalgesia compared to placebo", "setting": "[5]; 5 mg and 10 mg IP2015, 300 mg pregabalin, all post-capsaicin injection timepoints", "result": "lower"}, {"measurement": "average decrease in hyperalgesic area across all timepoints compared to placebo", "setting": "[5]; 10 mg IP2015", "result": 4, "unit": "cm^2"}, {"measurement": "decrease of subjective rating of pain compared to placebo", "setting": "[5]; 10 mg IP2015, 15 min post capsaicin", "result": 7.2, "unit": "mm"}, {"measurement": "decrease of subjective rating of pain compared to placebo", "setting": "[5]; 10 mg IP2015, 30 min post capsaicin", "result": 8.3, "unit": "mm"}, {"measurement": "decrease of subjective rating of pain compared to placebo", "setting": "[5]; 10 mg IP2015, 60 min post capsaicin", "result": 7.5, "unit": "mm"}, {"measurement": "Pain Score of Brush-evoked Allodynia Using an NRS, Adjusted Mean (MMRM)", "setting": "[5]; 10 mg IP2015", "result": 1.6}, {"measurement": "overall increase in warm detection threshold between test and control areas (QST)", "setting": "[5]; 10 mg IP2015, p = 0.013, post-hoc analysis", "result": "significant"}, {"measurement": "pressure pain threshold (QST)", "setting": "[5]; 10 mg IP2015, post-hoc analysis", "result": "best effects"}, {"measurement": "Subjective Rating of Pain, Adjusted Mean (MMRM)", "setting": "[5]; 10 mg IP2015 single oral dose", "result": 11.7, "unit": "mm"}, {"measurement": "thermal sensory limen warm test (QST)", "setting": "[5]; IP2015 versus pregabalin, post-hoc analysis", "result": "improved effects compared to pregabalin"}]}
